From patent US20230095836A1, “SUBSTITUTED 5,6-DIPHENYL-3(2H)-PYRIDAZINONES FOR USE AS FUNGICIDES” (FMC Corporation, priority 2020, published 2023)

Tests used:
Type in all cases: in vivo
Phakopsora pachyrhizi = assay: Test D: test solution sprayed on soybean seedlings, inoculated next day with Phakopsora pachyrhizi (Asian soybean rust); visual disease rating (100 = 100% disease control, 0 = no control; dash = not tested)
In short: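 Preventive spray test: soybean seedlings treated to run-off with ppm-level suspensions (acetone/water 50/50, 250 ppm PEG400), spore-inoculated one day later. Held 24 h at 22 °C in saturated air, then 8 days at 22 °C; disease control scored visually versus untreated plants, 0 = none, 100 = complete.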

[1] = system: Puccinia recondita f. sp. tritici; assay: Test B: test solution sprayed on wheat seedlings, inoculated next day with Puccinia recondita f. sp. tritici (wheat leaf rust); disease rating (100 = 100% disease control, 0 = no control; dash = not tested)
Excerpt: The resulting test suspensions were then used in Tests A-F. The test solution was sprayed to the point of run-off on wheat seedlings. […] A rating of 100 indicates 100% disease control and a rating of 0 indicates no disease control (relative to the controls). A dash (—) indicates the compound was not tested.

Alternaria solani = assay: Test F: test suspension sprayed on tomato seedlings, inoculated next day with Alternaria solani (tomato early blight); visual disease rating (100 = 100% disease control, 0 = no control; dash = not tested)
In short: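 Visual ratings of % disease control versus controls were made after inoculated plants spent 48 h at 27° C. in saturated air plus 3 days at 20° C. The compound suspension had been sprayed to run-off one day before spore inoculation.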

Zymoseptoria tritici = assay: Test A: test solution sprayed on wheat seedlings, inoculated next day with Zymoseptoria tritici (wheat leaf blotch); disease rating (100 = 100% disease control, 0 = no control; dash = not tested)
In short: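 Preventive spray test: compound applied to run-off one day before spore inoculation of wheat seedlings. Incubation was 48 h saturated humidity at 24° C followed by 17 days at 20° C. Disease then scored 0–100 as % control versus untreated plants.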

Botrytis cinerea = assay: Test E: test suspension sprayed on tomato seedlings, inoculated next day with Botrytis cinerea (tomato Botrytis); visual disease rating (100 = 100% disease control, 0 = no control; dash = not tested)
In short: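 Spores were applied one day after spraying the seedlings to run-off. Incubation was 48 h saturated at 20° C, then 3 days in a 24° C growth chamber. Visual ratings, relative to untreated controls, run from 0 (no control) to 100 (complete control).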

[2] = system: Blumeria graminis f. sp. tritici; assay: Test C: test suspension sprayed on wheat seedlings, inoculated next day with Blumeria graminis f. sp. tritici (wheat powdery mildew); visual disease rating (100 = 100% disease control, 0 = no control; dash = not tested)
In short: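 Visual ratings of disease control (0–100, relative to controls) were made 8 days after inoculation with B. graminis f. sp. tritici spore dust. Plants were held at 20 °C. Compound was applied as a spray to run-off one day before inoculation.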

SMILES | Test D disease control rating (Phakopsora pachyrhizi; 50 ppm) | Test B disease control rating ([1]; 50 ppm) | Test F disease control rating (Alternaria solani; 50 ppm) | Test A disease control rating (Zymoseptoria tritici; 50 ppm) | Test E disease control rating (Botrytis cinerea; 50 ppm) | Test C disease control rating ([2]; 50 ppm) | Test D disease control rating (Phakopsora pachyrhizi; 250 ppm) | Test B disease control rating ([1]; 250 ppm) | Test F disease control rating (Alternaria solani; 250 ppm) | Test A disease control rating (Zymoseptoria tritici; 250 ppm) | Test E disease control rating (Botrytis cinerea; 250 ppm) | Test C disease control rating ([2]; 250 ppm)
COc1cc(OC)cc(-c2nn(C)c(=O)c(Cl)c2-c2ccc(F)cc2Cl)c1 [Compound 55] | 99% | 100% | 99% | 99% | 99% | 98% | – | – | – | – | – | –
CCn1nc(-c2cc(OC)cc(OC)c2Cl)c(-c2c(F)cccc2F)c(C)c1=O [Compound 22] | 98% | 100% | 79% | 100% | 100% | 98% | – | – | – | – | – | –
CCn1nc(-c2c(F)cccc2F)c(-c2c(F)cccc2F)cc1=O [Compound 23] | – | – | – | – | – | – | 0% | 0% | 0% | 0% | 0% | 0%
CCCc1c(-c2ccc(F)cc2Cl)c(-c2cc(OC)ccc2Cl)nn(C)c1=O [Compound 125] | 17% | 0% | 0% | 100% | 99% | 97% | – | – | – | – | – | –
COc1cc(C#N)c(Cl)c(-c2nn(C)c(=O)c(Cl)c2-c2ccc(F)cc2Cl)c1 [Compound 51] | 100% | 100% | 100% | 100% | 96% | 99% | – | – | – | – | – | –
Cn1nc(-c2ccccc2)c(-c2c(F)cccc2F)c(Cl)c1=O [Compound 193] | – | – | – | – | – | – | 61% | 100% | 99% | 97% | 100% | 100%
Cc1c(-c2ccc(F)cc2Cl)c(-c2cc(F)ccc2Cl)nn(C)c1=O [Compound 128] | 99% | 100% | 100% | 100% | 98% | 100% | – | – | – | – | – | –
COc1cc(OC)c(Cl)c(-c2nn(C)c(=O)c(C)c2-c2ccc(F)cc2Cl)c1Cl [Compound 169] | 0% | 68% | 0% | 37% | 93% | 43% | – | – | – | – | – | –
COc1ccc(Cl)c(-c2nn(C)c(=O)c(OC)c2-c2ccc(F)cc2Cl)c1 [Compound 101] | 100% | 100% | 99% | 100% | 99% | 99% | – | – | – | – | – | –
COc1cc(F)c(F)c(-c2nn(C)c(=O)c(C)c2-c2ccc(F)cc2Cl)c1 [Compound 137] | 100% | 100% | 100% | 100% | 66% | 100% | – | – | – | – | – | –
COc1cc(OC)cc(-c2nn(C)c(=O)cc2-c2ccc(F)cc2Cl)c1 [Compound 18] | – | – | – | – | – | – | 0% | 98% | 0% | 99% | 99% | 96%
CCc1c(-c2ccc(F)cc2Cl)c(-c2ccc(F)cc2Cl)nn(C)c1=O [Compound 167] | 0% | 100% | 100% | 100% | 86% | 100% | – | – | – | – | – | –
COc1cc(C#N)cc(-c2nn(C)c(=O)cc2-c2c(F)cccc2F)c1 [Compound 71] | 0% | 0% | 0% | 8% | 16% | 0% | – | – | – | – | – | –
COc1c(-c2ccc(F)cc2Cl)c(-c2ccccc2Cl)nn(C)c1=O [Compound 160] | 73% | 100% | 0% | 100% | 99% | 100% | – | – | – | – | – | –
Cn1nc(-c2cc(F)ccc2Cl)c(-c2c(F)cccc2F)cc1=O [Compound 28] | – | – | – | – | – | – | 0% | 100% | 0% | 100% | 100% | 100%
Cn1nc(-c2ccc(F)cc2Cl)c(-c2ccc(F)cc2Cl)c(CC#N)c1=O [Compound 177] | 0% | 80% | 0% | 88% | 0% | 0% | – | – | – | – | – | –
CCn1nc(-c2cc(OC)cc(OC)c2Br)c(-c2c(F)cccc2F)c(Br)c1=O [Compound 16] | 84% | 97% | 94% | 99% | 99% | 97% | – | – | – | – | – | –
COc1cc(OC)cc(-c2nn(C)c(=O)c(C)c2-c2ccc(F)cc2Cl)c1 [Compound 65] | 94% | 100% | 99% | 99% | 100% | 98% | – | – | – | – | – | –
CCn1nc(-c2cc(OC)cc(OC)c2)c(-c2ccc(F)cc2Cl)cc1=O [Compound 26] | – | – | – | – | – | – | 0% | 55% | 0% | 12% | 99% | 96%
COc1cc(-c2nn(C)c(=O)c(Cl)c2-c2ccc(F)cc2Cl)cc(C#N)c1Cl [Compound 52] | 98% | 100% | 100% | 100% | 92% | 99% | – | – | – | – | – | –
CCn1nc(-c2c(Cl)c(OC)cc(OC)c2Cl)c(-c2c(F)cccc2F)cc1=O [Compound 2] | – | – | – | – | – | – | 0% | 0% | 0% | 2% | 0% | 0%
COc1cc(F)c(Br)c(-c2nn(C)c(=O)c(Cl)c2-c2ccc(F)cc2Cl)c1 [Compound 159] | 100% | 100% | 100% | 100% | 99% | 99% | – | – | – | – | – | –
COc1ccc(Cl)c(-c2nn(C)c(=O)cc2-c2ccc(F)cc2Cl)c1 [Compound 117] | 47% | 98% | 0% | 99% | 99% | 93% | – | – | – | – | – | –
Cn1nc(-c2ccc(F)cc2Cl)c(-c2ccc(F)cc2Cl)c(CO)c1=O [Compound 168] | 0% | 96% | 0% | 100% | 81% | 72% | – | – | – | – | – | –
CCN1N=C(c2cc(OC)cc(OC)c2)C(c2ccc(F)cc2Cl)CC1=O (stereo not drawn) [Compound 19] | – | – | – | – | – | – | 0% | 0% | 0% | 0% | 0% | 0%
CCc1c(-c2c(F)cccc2F)c(-c2cc(OC)cc(F)c2Br)nn(C)c1=O [Compound 181] | 100% | 100% | 100% | 98% | 94% | 100% | – | – | – | – | – | –
CCc1c(-c2c(F)cccc2F)c(-c2cc(OC)cc(F)c2Cl)nn(C)c1=O [Compound 180] | 100% | 100% | 100% | 100% | 99% | 100% | – | – | – | – | – | –
Cn1nc(-c2ccc(F)cc2Cl)c(-c2ccc(F)cc2Cl)c(CO)c1=O [Compound 172] | – | – | – | – | – | – | 78% | 92% | 0% | 79% | 83% | 87%
